We go through 99 compounds from ChEMBL document CHEMBL3507680, “University of Dundee, Gates Library screen for HepG2 cell viability”.

The series is described as follows: Human HepG2 cell viability assay in 384 well format. The conditions noted are these: HepG2 cells, read-out: Inhibition. The format is toxicity, cell-based. The arrangement: dose 125 nL, time 70.5 hour; concentration not given beside the values.
With `CC(C)(C)C(=O)N1CCC2(COCc3cnc(N4CCOCC4)nc32)C1` (centres undefined), the cytotoxicity at 70.5 h is -19.1%.

As for `Cc1cc(C2CCCN(C(=O)COc3cc(C)on3)C2)n[nH]1` (centres undefined), the cytotoxicity at 70.5 h was -3.29%.

Consider `O=C(c1cnccn1)N1CCN(Cc2ccncc2)c2ncccc2C1`, for which the cytotoxicity at 70.5 h is -5.23%.

Take `CC(C)(C)c1cnc(CN2CCC[C@H]2CO)o1`: the cytotoxicity at 70.5 h worked out at 0.665%.

In the case of `CN1C[C@@H]2COC[C@]2(C(=O)NCCc2cccs2)C1`, the cytotoxicity at 70.5 h was -5.55%.

As to `CCc1cc(=O)[nH]c(-c2ccc(NC(CO)CC(C)C)nc2)n1` (centres undefined), the cytotoxicity at 70.5 h was -2.63%.

Consider `CC(C)c1csc(C(=O)N(C)c2ccc(Br)cn2)n1`, for which the cytotoxicity at 70.5 h was -3.47%.

Regarding `CC(C)(C)C(=O)N1CCC(n2nc(-c3ccco3)ccc2=O)CC1`, the cytotoxicity at 70.5 h is -4.38%.

On to `Cc1nc(C)n(CC2CCCN2CCOc2ccccc2C#N)n1` (centres undefined), for which the cytotoxicity at 70.5 h was -13.6%.

With `Cc1cccnc1N1CCN(C(=O)C(C)n2ccnc2C(C)C)CC1` (centres undefined), the cytotoxicity at 70.5 h was -2.78%.

Turning to `Cc1cccc(CN2C(=O)CCC23CCN(Cc2nccn2C)CC3)n1`, the cytotoxicity at 70.5 h is -4.21%.

Take `CNc1cc(C)nc(C2CN(Cc3ccc(C)nc3)CCO2)c1` (centres undefined): the cytotoxicity at 70.5 h is -9.06%.

In the case of `Cc1cc(NC(=O)C(C)Nc2ccn(Cc3ccccn3)n2)on1` (centres undefined), the cytotoxicity at 70.5 h is -10.1%.

Regarding `O=C(NCc1csc(Br)c1)N1CCC(O)CC1`, the cytotoxicity at 70.5 h was -4.25%.

Turning to `CCN(CC)C(=O)c1ccc(COc2ccccc2C#N)o1`, the cytotoxicity at 70.5 h was -9.63%.

As to `CS(=O)(=O)NC1CCN(C(=O)c2ccc3ccccc3c2)C1` (centres undefined), the cytotoxicity at 70.5 h amounted to 5.82%.

For the compound `Cc1ccc(N2CCCc3sc(C(=O)NCc4ccncc4)nc32)nn1`, the cytotoxicity at 70.5 h is -1.89%.

Consider `CC(CNC(=O)Nc1ccc(C#N)cc1)N1CCc2ccccc21` (centres undefined), for which the cytotoxicity at 70.5 h amounted to 4.28%.

For `Cn1cnnc1S(=O)(=O)C1CCN(S(=O)(=O)c2ccccc2F)CC1`, the cytotoxicity at 70.5 h was -9.91%.

For `CCNc1ncc(C(=O)NCCNc2ccncc2C)cn1`, the cytotoxicity at 70.5 h amounted to 3.69%.

On to `Cc1ccc(N2CC3(COCCN(Cc4cccnc4)C3)OCC2=O)s1` (centres undefined), for which the cytotoxicity at 70.5 h worked out at 26.6%.

On to `N#Cc1c(Cl)nsc1N1CCN(CC2CCCCC2)CC1`, for which the cytotoxicity at 70.5 h turned out to be 0.793%.

`CCOc1c(F)cccc1C(=O)N(CC)C(C)c1cccnc1` (centres undefined): the cytotoxicity at 70.5 h was -6.68%.

For `O=C(Nc1ccc(F)cc1)NC1(CCO)CCOCC1`, the cytotoxicity at 70.5 h was -7.29%.

Turning to `COc1ccc(Cc2nc3c([nH]2)CC(C)(C)CNC3=O)cc1OC`, the cytotoxicity at 70.5 h was -8.64%.

For `COc1cnc(C2(O)CCN(C(=O)c3scnc3C)CC2)c(OC)n1`, the cytotoxicity at 70.5 h came out at 6.58%.

Turning to `Cc1nc2c(c(=O)n1C)CN(C(=O)C1CCCN(C3CCCC3)C1)C2` (centres undefined), the cytotoxicity at 70.5 h was 6.1%.

Turning to `CNC(=O)c1cc2c(nc1N(C)C)CCN(c1ncc(C)cn1)CC2`, the cytotoxicity at 70.5 h was -6.83%.

As for `Cc1nc(CN2CCCC2Cn2cncn2)no1` (centres undefined), the cytotoxicity at 70.5 h is 13.1%.

Take `CC(C)N(CC(N)=O)Cc1csc(-c2ncccn2)n1`: the cytotoxicity at 70.5 h was -2.81%.

Consider `O=C(c1cnccn1)N1C[C@@H]2OCC(=O)N(CC3CCCCC3)[C@@H]2C1`, for which the cytotoxicity at 70.5 h is -0.096%.

`CC(O)CN1CC2(CCC1=O)CCN(Cc1cc(F)ccc1Cl)CC2` (centres undefined): the cytotoxicity at 70.5 h was -2.56%.

Regarding `CC(C)c1noc(CCCC(=O)NC(C)c2nnc3n2CCC3)n1` (centres undefined), the cytotoxicity at 70.5 h was -4.68%.

For `COCC(=O)N1CCCC1(C(=O)N(C)C)c1cnccn1` (centres undefined), the cytotoxicity at 70.5 h is -4.12%.

Regarding `CC(C)C(N)C1=N/C(=C2\N=CN=N2)NO1` (centres undefined), the cytotoxicity at 70.5 h stood at 5.13%.

With `N#Cc1cc(F)ccc1CN1CCCCC1Cn1cncn1` (centres undefined), the cytotoxicity at 70.5 h was -4.9%.

As to `COc1cc(N2CC3(CCN(S(C)(=O)=O)C3)C2)ncn1`, the cytotoxicity at 70.5 h was -12%.

`CCNc1cc2c(nn1)CCN(C(=O)Cc1c(C)noc1C)C2`: the cytotoxicity at 70.5 h came to 4.3%.

Consider `Cn1cc(CN2CCCC3(CCN(Cc4cccnc4)C3=O)C2)cn1` (centres undefined), for which the cytotoxicity at 70.5 h was -13.4%.

For the compound `c1ccc(COc2ccccc2NC2CCOCC2)nc1`, the cytotoxicity at 70.5 h was -4.09%.

For the compound `Cc1noc(C(C)C)c1C(=O)N1CCCN(Cc2cscn2)CC1`, the cytotoxicity at 70.5 h turned out to be 1.02%.

For the compound `COc1cccc(CNCc2ccccc2Cl)c1O`, the cytotoxicity at 70.5 h was 26.4%.

As to `CC(C)c1cc2c(O)nc(CSCC(=O)NCc3ccncc3)nc2s1`, the cytotoxicity at 70.5 h was -12.9%.

Take `CC(Nc1cccc(CN2CCOC2=O)c1)C(=O)Nc1cccc(F)c1` (centres undefined): the cytotoxicity at 70.5 h was -0.899%.

With `Cc1ccc(-c2cnn(CC(=O)NC(C)C)c2)cc1`, the cytotoxicity at 70.5 h is -3.29%.

In the case of `CCN(Cc1cscn1)CC1(C)Cc2c(N)nc(N)nc2O1` (centres undefined), the cytotoxicity at 70.5 h turned out to be 6.12%.

In the case of `Cc1occc1C(=O)Nc1cnn(CCN2CCOCC2)c1`, the cytotoxicity at 70.5 h was found to be 16.8%.

Consider `CC(=O)N1CCN(CCNC(=O)c2nc3ccccc3c(=O)[nH]2)CC1`, for which the cytotoxicity at 70.5 h was -7.43%.

On to `COc1nn(C)cc1C(=O)N1CCC(c2nnc(-c3ccsc3)o2)CC1`, for which the cytotoxicity at 70.5 h is -6.31%.

With `CCc1nc(CSCc2csc(CS(C)(=O)=O)n2)cs1`, the cytotoxicity at 70.5 h is -1.17%.

Regarding `O=c1cc(Cn2cncn2)nc2n1CCCN(Cc1ccco1)C2`, the cytotoxicity at 70.5 h is -3.55%.

As to `Cc1cnc(N2CCCC3(COCCN(c4ccc(C)nn4)C3)C2)nc1` (centres undefined), the cytotoxicity at 70.5 h is -2.56%.

Consider `CC(C)C(NC(=O)N1CCN(c2ccc(Cl)cc2)CC1)C(=O)NC1CC1` (centres undefined), for which the cytotoxicity at 70.5 h is -6.65%.

`O=C(CN1C=Nc2ccccc2S1(=O)=O)NC1CCCCC1`: the cytotoxicity at 70.5 h was 3.38%.

As for `O=C(NC1CC1)[C@H]1C[C@H]2OCC[C@H]2N(Cc2cccc3ccccc23)C1`, the cytotoxicity at 70.5 h was -0.842%.

As for `CCCS(=O)(=O)N1C[C@@H]2CN(Cc3cccs3)CCO[C@@H]2C1`, the cytotoxicity at 70.5 h was -14.7%.

As to `CCn1cc(NC(=O)C2CCN(Cc3ccccc3)CC2)cn1`, the cytotoxicity at 70.5 h came out at 2.21%.

As to `Cn1cc(Br)c(C(=O)NCCn2cc(Br)cn2)n1`, the cytotoxicity at 70.5 h turned out to be 8.47%.

As for `O=C(CCc1nccs1)N1CCCC(n2cccn2)C1` (centres undefined), the cytotoxicity at 70.5 h came to 1.23%.

As to `CC(C)CN1C(=O)C2(CCN(Cc3ccc(F)cc3)C2)c2ccccc21` (centres undefined), the cytotoxicity at 70.5 h was -0.325%.

`Nc1nccc(C2CCCN2CCc2ccccc2)n1` (centres undefined): the cytotoxicity at 70.5 h was -1.57%.

For the compound `Cc1cc(-c2ccc(C(C)N3CCCCC3)cc2)cnc1N` (centres undefined), the cytotoxicity at 70.5 h was -1.07%.

As for `Fc1ccc(-c2nc(CN3CCOC(Cn4cccn4)C3)co2)cc1` (centres undefined), the cytotoxicity at 70.5 h was -5.89%.

For the compound `CN(C)Cc1cn2c(n1)CN(CC1CCCC1)CC2`, the cytotoxicity at 70.5 h is -6.79%.

In the case of `CC(c1nc(C(C)(C)C)no1)N1CCN(c2ccc(C#N)cn2)CC1` (centres undefined), the cytotoxicity at 70.5 h was -13.9%.

Turning to `CNC(=O)c1ccc(C2CN(Cc3ccc(F)cc3)CCO2)nc1` (centres undefined), the cytotoxicity at 70.5 h was -1.99%.

Consider `COCC1CC2(CCN(C(=O)c3ccc(C)nc3)CC2)CO1` (centres undefined), for which the cytotoxicity at 70.5 h was -5.4%.

`COCCNc1ccc(CC2CCCN(c3ncccn3)C2)nn1` (centres undefined): the cytotoxicity at 70.5 h is -1.21%.

For the compound `Cc1csc(N2CCN(C(=O)CCC(=O)c3ccc(C)s3)CC2)n1`, the cytotoxicity at 70.5 h was determined as 7.78%.

Turning to `CCOc1ccc2cc(C(=O)NCCC(=O)N(C)C)[nH]c2c1`, the cytotoxicity at 70.5 h was -7.75%.

Regarding `OCc1cn(Cc2cccc(C(F)(F)F)c2)nn1`, the cytotoxicity at 70.5 h is -9.88%.

Turning to `Cc1nc(C)c(C(=O)N2CCCC(C(=O)c3nccn3C)C2)s1` (centres undefined), the cytotoxicity at 70.5 h is -2.4%.

With `CC(Oc1ccccc1C(F)(F)F)C(=O)NCCC(=O)N(C)C` (centres undefined), the cytotoxicity at 70.5 h came to 0.999%.

For the compound `COc1ccc(C(O)C(=O)N2CCC(c3nccn3C(C)C)CC2)cc1` (centres undefined), the cytotoxicity at 70.5 h worked out at 28.1%.

For `CCN(C(=O)COc1nc(C(C)(C)C)no1)C1CC1`, the cytotoxicity at 70.5 h is -2.91%.

Consider `CN(C)c1cc(CNC(=O)c2ccc(Br)cc2F)ccn1`, for which the cytotoxicity at 70.5 h is -4.97%.

For `Cn1cc(C[C@H]2[C@@H](O)CCN2C(=O)C2CCC2)cn1`, the cytotoxicity at 70.5 h was -1.34%.

Consider `CN(C(=O)Nc1cccc(C#N)c1)C1CCN(c2ccccn2)CC1`, for which the cytotoxicity at 70.5 h was -8.89%.

As to `CC(C)(C)n1ncc2c1NC(=O)CSC2c1ccsc1` (centres undefined), the cytotoxicity at 70.5 h is -13.1%.

Take `Cc1ccc(-c2cc(CNCCn3cc(C)cn3)on2)cc1`: the cytotoxicity at 70.5 h is -1.34%.

For `CNC(=O)[C@@]12CCO[C@@H]1CCN(S(=O)(=O)c1ccccc1C)C2`, the cytotoxicity at 70.5 h is -10.5%.

`CC(C)Cc1nc(CN2CCOC(Cn3cccn3)C2)no1` (centres undefined): the cytotoxicity at 70.5 h worked out at 15.4%.

With `CC(C)n1nc2c(cc1=O)CN(Cc1nc3ccccc3o1)CC2`, the cytotoxicity at 70.5 h was 10.1%.

Turning to `O=C(NCc1cn2c(n1)CN(Cc1nccs1)CC2)C1CCC1`, the cytotoxicity at 70.5 h was -6.31%.

`CC[C@H](CO)NC(=O)c1coc(COc2ccccc2F)n1`: the cytotoxicity at 70.5 h is 2.14%.

Consider `CC1(C)O[C@@](C)([C@H]2CC3(CCN(c4cnccn4)CC3)CO2)CC[C@@H]1O`, for which the cytotoxicity at 70.5 h was 1.78%.

Turning to `CC(C)Cn1ncc(C(=O)NS(=O)(=O)c2ccccc2)c1C1CC1`, the cytotoxicity at 70.5 h is -8.45%.

For the compound `O=C1NC2(CCN(Cc3nccs3)CC2)CC1c1ccncc1` (centres undefined), the cytotoxicity at 70.5 h is -0.916%.

In the case of `CCC1=N[C@@]2(CC[C@@H]3CN(CC(=O)N(C)C)C[C@@H]32)C(=O)N1CC(C)C`, the cytotoxicity at 70.5 h was -6.91%.

`O=C(NC1CCC1)[C@@H]1CC[C@@H]2[C@@H](CCN2CCc2ccccc2)O1`: the cytotoxicity at 70.5 h was -13.9%.

`COCCN1CCCC2(CCN(c3cc(C)c(C#N)c(C)n3)C2)C1=O` (centres undefined): the cytotoxicity at 70.5 h worked out at 14.9%.

Consider `COc1cccc(-c2cc(NCc3cscn3)n(C)n2)c1`, for which the cytotoxicity at 70.5 h is -7.72%.

Take `Cc1ccccc1-c1cc(NC(=O)Cn2ccccc2=O)n(C)n1`: the cytotoxicity at 70.5 h was -0.508%.

`O=S(=O)(NCC1(O)CCOc2ccccc21)c1ccccc1F` (centres undefined): the cytotoxicity at 70.5 h was -4.25%.

`COc1ncccc1NC(=O)C1CC1`: the cytotoxicity at 70.5 h is -1.48%.

As to `CCS(=O)(=O)NC[C@]12COC[C@H]1CN(Cc1sccc1C)C2`, the cytotoxicity at 70.5 h is -0.717%.

As to `COc1cccc(CN(C(=O)NC2CC2)C2CCC(O)CC2)c1` (centres undefined), the cytotoxicity at 70.5 h is -6.74%.

Consider `Cc1cnnn1Cc1nnn2c1CN(Cc1ccccn1)CCC2`, for which the cytotoxicity at 70.5 h was -7.24%.

In the case of `Cc1ccc(-c2noc(CN3CCC(N4CCNC4=O)CC3)n2)cc1`, the cytotoxicity at 70.5 h is 20.8%.
